# Results from patent US5276049A, “Cyclic urea derivatives, pharmaceutical compositions containing these compounds and methods of using the same” (Dr. Karl Thomae GmbH, priority 1991, dated 1994).
# Where a name gives a salt, the structure may show the parent alone.
# Tests used:
# Human Thrombocytes = test: Fibrinogen Binding to Human Thrombocytes (I125-fibrinogen, gel-filtered platelets); conditions: inhibition of I125-fibrinogen binding to gel-filtered human platelets, ADP, 20 minutes, ambient temperature; read-out: Fibrinogen Binding test IC50
# Protocol: 1. Fibrinogen Binding to Human Thrombocytes Blood obtained by puncture of an antecubital vein was anticoagulated with trisodium citrate (final concentration: 13 mM) and centrifuged for 10 minutes at 170 *g. The supernatant platelet-rich plasma was placed on a Sepharose 2B column (Pharmacia) and eluted with a solution of 90 mM common salt, 14 mM trisodium citrate, 5 mM glucose and 50 mM tris(hydroxymethyl)aminomethane, adjusted to pH 7.4. The gel-filtered platelets (GFP) appearing in front of the plasma proteins were used for the binding tests. 50 μl of a 60 mM calcium chloride solution, 50 μl of a 0.6 mM adenosine diphosphate solution, 100 μl of substance solution or solvent and 50 μl of fibrinogen solution (containing 3 μg I125-fibrinogen) were added to 750 μl of GFP and incubated for 20 minutes at ambient temperature. The non-specific binding was measured in the presence of 3 mg/ml of cold fibrinogen. 900 μl of the incubate were carefully pipetted onto 250 μl of silicon oil (AP 38: AR 20, 1:2 v/v, Wacker Chemie) in Eppendorf vessels and centrifuged for 2 minutes at 10,000 *g. The aqueous supernatant and some of the oil were removed, the tip of the vessel with the platelet pellet was cut off and the quantity of bound fibrinogen was measured in a gamma-counter. The concentration of substance which inhibited fibrinogen binding by 50% was calculated from a series of concentrations and given as the IC50.
# [1] = system: thrombocyte aggregation in platelet-rich plasma; test: Antithrombotic effect: collagen-induced thrombocyte aggregation in platelet-rich plasma (Born and Cross); type: cell-based; conditions: human platelet-rich plasma, 10 minutes preincubation at 37° C., read-out: Inhibition of platelet aggregation EC50
# Protocol: 2. Antithrombotic Effect Method: The thrombocyte aggregation was measured in platelet-rich plasma from healthy test subjects using the Born and Cross method (J. Physiol. 170: 397 (1964)). In order to inhibit coaggulation the blood was mixed with 3.14% sodium citrate in a ratio by volume of 1:10. Collagen-induced aggregation: The decrease in the optical density of the platelet suspension was measured photometrically and recorded after the addition of the aggregation-initiating substance. The speed of aggregation was concluded from the angle of inclination of the density curve. The point on the curve at which there was maximum transmittance was used to calculate the optical density. The quantity of collagen used was as little as possible but sufficient to give an irreversible reaction curve. Standard commercial collagen produced by Hormonchemie of Munich was used. Before the addition of collagen the plasma was incubated with the substance for 10 minutes at 37° C. From the measurements obtained, an EC50 was determined graphically, relating to a 50% change in the optical density in terms of inhibiting aggregation.
structure (smiles),measurement,setting,value
"N=C(N)c1ccc(-n2ncn(-c3ccc(CCC(=O)O)cc3)c2=O)cc1 [1(145), 2-(4-amidino-phenyl)-4-[4-(2-carboxy-ethyl)-phenyl]-4H-1,2,4-triazol-3-one]",IC50,Human Thrombocytes,7.7 nM
same,EC50,[1],50 nM
"N=C(N)c1ccc(-c2cn(-c3ccc(CCC(=O)O)cc3)c(=O)n2-c2ccccc2)cc1 [1(94), 4-(4-amidino-phenyl)-1-[4-(2-carboxy-ethyl)-phenyl]-3-phenyl-3H-imidazol-2-one hydrochloride]",IC50,Human Thrombocytes,310 nM
same,EC50,[1],400 nM
"COC(=O)CCc1ccc(N2CCCN(c3ccc(CN)cc3)C2=O)cc1 [8(1), 1-(4-aminomethyl-phenyl)-3-[4-(2-methoxycarbonyl-ethyl)-phenyl]-3,4,5,6-tetrahydro-1H-pyrimidin-2-one hydrochloride]",IC50,Human Thrombocytes,68000 nM
same,EC50,[1],21000 nM
"COC(=O)CCc1ccc(N2CCN(c3ccc(C(C)N)cc3)C2=O)cc1 (centres unmarked) [Example 31, 1-[4-(1-Amino-ethyl)-phenyl]-3-[4-(2-methoxycarbonyl-ethyl)-phenyl]-imidazolidin-2-one hydrochloride]",IC50,Human Thrombocytes,250 nM
same,EC50,[1],500 nM
"COC(=O)CCc1ccc(N2CCN(c3ccc(C(=N)N)cc3C)C2=O)cc1 [2(34), 1-(4-amidino-2-methyl-phenyl)-3-[4-(2-methoxycarbonyl-ethyl)-phenyl]-imidazolidin-2-one hydrochloride]",IC50,Human Thrombocytes,7400 nM
same,EC50,[1],350 nM
"CCOC(=O)CCN1C(=O)CN(c2ccc(-c3ccc(C(=N)N)cc3)cc2)C1=O [2(2), 1-(4'-amidino-4-biphenylyl)-3-(2-ethoxycarbonyl-ethyl)-imidazolidin-2,4-dione hydrochloride]",IC50,Human Thrombocytes,25000 nM
same,EC50,[1],630 nM
"COC(=O)CCc1ccc(N2CCN(c3ccc(C(=N)NC(=O)OC)cc3)C2=O)cc1 [5(1), 1-(4-methoxycarbonylamidino-phenyl)-3-[4-(2-methoxycarbonyl-ethyl)-phenyl]-imidazolidin-2-one]",IC50,Human Thrombocytes,> 100000 nM
same,EC50,[1],20000 nM
"CN1C(=O)N(c2ccc(CCC(=O)O)cc2)CC1c1ccc(C(=N)N)cc1 (centres unmarked) [4(16), 4-(4-amidino-phenyl)-1-[4-(2-carboxy-ethyl)-phenyl]-3-methyl-imidazolidin-2-one hydrochloride]",IC50,Human Thrombocytes,1500 nM
same,EC50,[1],1900 nM
"CCOC(=O)CCn1ccn(-c2ccc(-c3ccc(C(=N)N)cc3)cc2)c1=O [2(3), 1-(4'-amidino-4-biphenylyl)-3-(2-ethoxycarbonyl-ethyl)-3H-imidazol-2-one h ydrochloride]",IC50,Human Thrombocytes,18000 nM
same,EC50,[1],3100 nM
"CCOC(=O)CCN1CCCN(c2ccc(-c3ccc(C(=N)N)cc3)cc2)C1=O [2(4), 1-(4'-amidino-4-biphenylyl)-3-(2-ethoxycarbonyl-ethyl)-3,4,5,6-tetrahydro-1H-pyrimidin-2-one hydrochloride]",IC50,Human Thrombocytes,15000 nM
same,EC50,[1],42000 nM
"N=C(N)c1ccc(-c2ccc(N3CCN(CC(=O)O)C3=O)cc2)cc1 [Example 1, 1-(4'-Amidino-4-biphenylyl)-3-carboxymethyl-imidazolidin-2-one]",IC50,Human Thrombocytes,1800 nM
same,EC50,[1],9900 nM
"CCc1nn(-c2ccc(C(=N)N)cc2)c(=O)n1-c1ccc(CCC(=O)O)cc1 [1(140), 2-(4-amidino-phenyl)-4-[4-(2-carboxy-ethyl)-phenyl]-5-ethyl-4H-1,2,4-triazol-3-one]",IC50,Human Thrombocytes,21 nM
same,EC50,[1],30 nM
"COC(=O)CCN1CCN(c2ccc(-c3ccc(C(=N)N)cc3)cc2)S1(=O)=O [2(20), 2-(4'-amidino-4-biphenylyl)-5-(2-methoxycarbonyl-ethyl)-3,4-dihydro-2H,5H-1,2,5-thiadiazole-1,1-dioxide hydrochloride]",IC50,Human Thrombocytes,5700 nM
same,EC50,[1],690 nM
"N=C(N)c1ccc(N2CCC(N3CCN(CCC(=O)O)C3=O)CC2)cc1 [1(24), 1-[1-(4-amidino-phenyl)-4-piperidinyl]-3-(2-carboxy-ethyl)-imidazolidin-2-one]",IC50,Human Thrombocytes,470 nM
same,EC50,[1],1100 nM
"COC(=O)C[S+]([O-])c1ccc(N2CCN(c3ccc(C(=N)N)cc3)C2=O)cc1 (centres unmarked) [18(5), 1-(4-amidino-phenyl)-3-(4-methoxycarbonylmethyl-sulphinyl-phenyl)-imidazolidin-2-one]",IC50,Human Thrombocytes,420 nM
same,EC50,[1],120 nM
"COC(=O)CCc1ccc(-n2cnn(-c3ccc(C(=N)N)cc3)c2=O)cc1 [2(123), 2-(4-amidino-phenyl)-4-[4-(2-methoxycarbonyl-ethyl)-phenyl]-4H-1,2,4-triazol-3-one hydrochloride]",IC50,Human Thrombocytes,3100 nM
same,EC50,[1],70 nM
"N=C(N)c1ccc(-c2ccc(-c3cn(CCC(=O)O)c(=O)[nH]3)cc2)cc1 [1(117), 4-(4'-amidino-4-biphenylyl)-1-(2-carboxy-ethyl)-3H-imidazol-2-one hydrochloride]",IC50,Human Thrombocytes,230 nM
same,EC50,[1],5400 nM
"COC(=O)CNCCN1CCN(c2ccc(C(=N)N)cc2)C1=O [2(75), 1-(4-amidino-phenyl)-3-(2-methoxycarbonylmethylamino-ethyl)-imidazolidin-2-one hydrochloride-acetate]",IC50,Human Thrombocytes,8000 nM
same,EC50,[1],27000 nM
"N=C(N)c1ccc(N2CCN(c3ccc(CCC(=O)O)cc3)C2=O)cc1 [1(6), 1-(4-amidino-phenyl)-3-[4-(2-carboxy-ethyl)-phenyl]-imidazolidin-2-one]",IC50,Human Thrombocytes,17 nM
same,EC50,[1],70 nM
"COC(=O)CCCCN1CCN(c2ccc(C(=N)N)cc2)C1=O [2(71), 1-(4-amidino-phenyl)-3-(4-methoxycarbonyl-butyl)-imidazolidin-2-one hydrochloride]",IC50,Human Thrombocytes,13000 nM
same,EC50,[1],14000 nM
"N=C(N)c1ccc(-c2ccc(N3CCCN(CCC(=O)O)C3=O)cc2)cc1 [1(4), 1-(4'-amidino-4-biphenylyl)-3-(2-carboxy-ethyl)-3,4,5,6-tetrahydro-1H-pyrimidin-2-one]",IC50,Human Thrombocytes,3900 nM
same,EC50,[1],> 100000 nM
"NCc1ccc(N2CCN(c3ccc(CC(N)C(=O)O)cc3)C2=O)cc1 (centres unmarked) [1(149), 1-[4-(2-amino-2-carboxy-ethyl)-phenyl]-3-(4-aminomethyl-phenyl)-imidazolidin-2-one]",IC50,Human Thrombocytes,470 nM
same,EC50,[1],1300 nM
"N=C(N)c1ccc(-c2ccc(-c3cn(CCC(=O)O)c(=O)n3-c3ccccc3)cc2)cc1 [1(119), 4-(4'-amidino-4-biphenylyl)-1-(2-Carboxy-ethyl)-3-phenyl-3H-imidazol-2-onehydrochloride]",IC50,Human Thrombocytes,210 nM
same,EC50,[1],730 nM
"N=C(N)c1ccc(-c2ccc(N3CCCN(CC(=O)O)C3=O)cc2)cc1 [1(5), 1-(4'-amidino-4-biphenylyl)-3-carboxymethyl-3,4,5,6-tetrahydro-1H-pyrimidin-2-one]",IC50,Human Thrombocytes,6100 nM
same,EC50,[1],32000 nM
"COC(=O)CCn1cc(-c2ccc(-c3ccc(C(=N)N)cc3)cc2)[nH]c1=O [2(104), 4-(4'-amidino-4-biphenylyl)-1-(2-methoxycarbonyl-ethyl)-3H-imidazol-2-one hydrochloride]",IC50,Human Thrombocytes,7100 nM
same,EC50,[1],2100 nM
"COC(=O)CCc1ccc(-n2c(C)nn(-c3ccc(C(=N)N)cc3)c2=O)cc1 [2(118), 2-(4-amidino-phenyl)-4-[4-(2-methoxycarbonyl-ethyl)-phenyl]-5-methyl-4H-1,2,4-triazol-3-one hydrochloride]",IC50,Human Thrombocytes,2000 nM
same,EC50,[1],70 nM
"Cc1cc(C(=N)N)ccc1N1CCN(c2ccc(CCC(=O)O)cc2)C1=O [1(36), 1-(4-amidino-2-methyl-phenyl)-3-[4-(2-carboxy-ethyl)-phenyl]-imidazolidin-2-one]",IC50,Human Thrombocytes,37 nM
same,EC50,[1],100 nM
"Cc1cc(CN)ccc1N1CCN(c2ccc(CCC(=O)O)cc2)C1=O [1(156), 1-(4-aminomethyl-2-methyl-phenyl)-3-[4-(2-carboxy-ethyl)-phenyl]-imidazolidin-2-one]",IC50,Human Thrombocytes,3600 nM
same,EC50,[1],4100 nM
"COC(=O)CCc1ccc(-n2c(C)cn(-c3ccc(C(=N)N)cc3)c2=O)cc1 [2(115), 1-(4-amidino-phenyl)-3-[4-(2-methoxycarbonyl-ethyl)-phenyl]-4-methyl-3H-imidazol-2-one hydrochloride]",IC50,Human Thrombocytes,530 nM
same,EC50,[1],80 nM
"COC(=O)CCc1ccc(N2CCN(c3ccc4c(c3)CCC4N)C2=O)cc1 (centres unmarked) [31(1), 1-(1-amino-5-indanyl)-3-[4-(2-methoxycarbonyl-ethyl)-phenyl]-imidazolidin-2-one hydrochloride]",IC50,Human Thrombocytes,170 nM
same,EC50,[1],370 nM
"COC(=O)COc1ccc(N2CCN(c3ccc(CN)cc3)C2=O)cc1 [Example 8, 1-(4-Aminomethyl-phenyl)-3-(4-methoxycarbonylmethyloxy-phenyl)-imidazolidin-2-one hydrochloride]",IC50,Human Thrombocytes,750 nM
same,EC50,[1],600 nM
